{"source": "patent US20030153544A1", "about": "“Fatty acid derivatives” (priority 1997, published 2003)", "key": {"[1]": {"system": "cisplatin-resistant subline of ADJ/PC6 plasmacytoma", "assay": "antitumour effect in vivo, cisplatin-resistant subline of ADJ/PC6 plasmacytoma", "parameters": "species or system murine", "experimental": "(§1) Murine solid ADJ/PC6 plasmacytoma and its subline selected for resistance to cisplatin and other alkylating agents was implanted subcutaneously as 1 mm^3 tumour fragments into BALB/C female mice weighing 20-25 grams. Melphalan or melphalan-elaidic amide, or chlorambucil or chlorambucil-oleylester, were administered by intraperitoneal, single dose 20 days post subcutaneous tumour implantation. Tumours were dissected on day 30, and weights of control and treated groups were compared. Activity was based on the measurement of drug toxicity, LD50 in mg/kg compared to anti-tumour effect measured as ED90, the dose in mg/kg required to reduce tumour mass by 90% compared to controls."}, "ADJ/PC6 plasmacytoma": {"system": "ADJ/PC6 plasmacytoma", "assay": "antitumour effect in vivo, murine subcutaneous ADJ/PC6 plasmacytoma (sensitive)", "details": "i.p. single dose day 20, tumours weighed day 30", "experimental": "as §1"}, "[2]": {"assay": "drug toxicity LD50 in tumour-bearing mice, single intraperitoneal dose", "format": "in vivo, BALB/C female mice", "details": "for LD50 at 10 days: female, BALB/C, mouse, in vivo, ip, read-out: Mother compound LD50", "experimental": "as §1"}, "[3]": {"system": "rat peritoneal monocytes/macrophages", "assay": "effect on rat peritoneal monocytes/macrophages after intraperitoneal injection (cell counts, chemoluminescence on stimulation)", "format": "in vivo", "details": "for activity (chemoluminescence) of zymosan stimulated peritoneal cells: 6, 12, 25, 48 and 72 hours post treatment, FIG. 5"}, "[4]": {"system": "endotoxin induced airway changes", "assay": "endotoxin (LPS) induced airway changes in rats, airway hyperresponsiveness model", "format": "in vivo, F344 rats", "quoted_text": "In a model of acute inflammatory airway changes in rats, the animals are exposed to aerosolized endotoxin (LPS). […] 10 male F344 rats were exposed to 100 μg/ml LPS for 30 minutes in a chamber. 12 and 4 hours prior to aerosol exposure the animals were treated with either prednisolone or the prednisolone derivative by instillation, 3 mg/kg. 90 minutes after the end of the aerosol exposure, the animals were prepared for assessment of airway responsiveness to 5-hydroxytryptamine and evaluation of airway inflammation. 5HT was added intravenously every 5 minutes until minimum 50% increase in lung resistance is observed, and the amount of 5 HT necessary to increase the lung resistance with 50%, PC50RL was calculated."}, "[5]": {"system": "COR-L23/P and its resistant cell line COR-L23/R", "format": "cell-based, human", "details": "for fluorescence due to uptake in resistant and non-resistant cells: drug concentration 10 μM, FIG. 12; for cellular accumulation (concentration) in COR-L23/R compared with COR-L23/P: drugs at 20 μM, FIG. 11", "experimental": "Cells were exposed in suspension at 2×10^5/ml to drugs at 20 μM. Aliquots were taken at various times and rinsed in ice cold PBS before being passed through the flow cytometre.\nCells were exposed to Daunorubicine, Daunorubicine elaidic amide and Daunorubicine oleic carbamate, as described above. Drug concentration was reduced to 10 μM."}, "[6]": {"system": "granuloma induced cartilage degradation", "details": "daily oral; for glycosaminoglycan content of implanted cartilage, less than liposome-treated control group / hydroxyproline content of implanted cartilage, less than liposome-treated control group / reduction of granuloma tissue dry weight versus liposome-treated control / reduction of fluid mass of the granulomas versus liposome-treated control: naproxen 30 mg/kg, derivatives 60 mg/kg; for glycosaminoglycan content of implanted cartilage, less than liposome-treated control group / hydroxyproline content of implanted cartilage, less than liposome-treated control group: implants 2 weeks; for reduction of granuloma tissue dry weight versus liposome-treated control / reduction of fluid mass of the granulomas versus liposome-treated control: liposomes; for reduction of granuloma tissue dry weight versus liposome-treated control: control 14.36 mg; for reduction of fluid mass of the granulomas versus liposome-treated control: control 62.69 mg", "text": "The in vivo model of granuloma induced cartilage degradation which was employed involves the implantation of sterile cotton-wrapped rat femoral head cartilage subcutaneously on the backs of mice. The cotton provokes a granulomatous response with a demonstrable T cell involvement which leads to loss of matrix compounds from the implanted cartilage. […] It involves chronic erosive disease with quantitative biochemical end points for determining the loss of cartilage matrix. Antiinflammatory activity can be judged from the wet and dry mass of the cotton granuloma, chondroprotective activity can be determined from glycosaminoglycan and hydroxyproline content (indicative of proteoglycan and collagen respectively) of the implanted cartilage.\nGroups of female (n=10) TO mice (21±4 g) received a subcutaneous implant of cotton-wrapped rat femoral head cartilage. At 2 weeks the implants were removed. The cotton provoked a granulomatous response with concomitant release of proteoglycan from the implanted cartilage. The effects of daily oral administration of equimolar amounts of naproxen (30 mg/kg) and naproxen derivatives (60 mg/kg) on granuloma development and cartilage proteoglycan content were assessed. The compounds were formulated as liposomes with empty liposomes acting as vehicle control.\nA 15 mg/ml liposomal formulation is prepared by the 1:1 (w/w) mixing of the specific lipid derivatives (in DMSO) and lecithin (in ethanol) in a glycerol/sterile water buffer with subsequent dialysis to remove the solvents. A 7.5 mg/ml liposomal formulation of the underivatised NSAID compounds is prepared by the addition of the specific compound to empty liposomes in glycerol/sterile water.\nResults were analysed with INSTAT using Mann-Whitney and with p values corrected for ties. Values of p<0.05 were taken as significant."}, "[7]": {"system": "NK65 strain drug sensitive P. berghei", "assay": "4-day test in P. berghei infected mice", "format": "in vivo", "details": "for ED50: Plasmodium berghei, ip, 96 h, 50% reduction in parasites in blood, read-out: ED50 value (SE); for ED50 / ED90 value / ED99 value: i.p. for 4 days, elaidate values × 433/600; for ED90 value: 90% reduction in parasites in blood; for ED99 value: 99% reduction in parasites in blood", "experimental": "A 4-day test in NK65 strain drug sensitive P. berghei was carried out in Swiss albino female mice with doses of 0.063, 0.25, 1.0 and 4 mg/kg hydroxychloroquine-elaidate and 0.094, […], 1.5 and 6 mg/kg hydroxychloroquine given intraperitoneally for 4 days to groups of 3 mice per group. The parasite inoculum of 10^7 infected cells was given intravenously on day 0 and follwoed by the drug dose for that day. The animals were dosed for the 3 following days and on the 5th day tail blood films were prepared for parasitaemia estimation. […] These findings could be of great importance in the treatment of malaria in man.\nThe effective doses giving 50%, 90% and 99% reduction in P. berghei malaria parasites in the blood of mice with either hydroxychloroquine sulphate or hydroxychloroquine-elaidate is shown in this table."}, "[8]": {"system": "H69/LX4, human small lung cell line, overexpressing PgP", "text": "An MTT assay was used to determine the toxicity of compounds. The cells were exposed to the compounds for 6 days prior to assaying. The cell line used was H69/LX4, human small lung cell line, overexpressing PgP."}, "[9]": {"details": "i.p. single dose day 20, tumours weighed day 30"}}, "data": [{"compound": "CCCCCCCC/C=C/CCCCCCCC(=O)NC(Cc1ccc(N(CCCl)CCCl)cc1)C(=O)O", "note": "(stereo not shown) [melphalan-elaidic amide, Elaidic acid melphalan amide]", "values": [{"measurement": "ED90, dose required to reduce tumour mass by 90% compared to controls", "setting": "[1]; [9]", "value": 60, "unit": "mg/kg"}, {"measurement": "ED90, dose required to reduce tumour mass by 90% compared to controls", "setting": "[1]; i.p. single dose day 20, tumours weighed day 30, listed as melphalan-elaidic acid amide", "value": "ED90 was achieved"}, {"measurement": "ED90, dose required to reduce tumour mass by 90% compared to controls", "setting": "ADJ/PC6 plasmacytoma", "value": "ED90 was achieved"}, {"measurement": "Derivative LD50", "setting": "[2]", "value": 180, "unit": "mg/kg"}]}, {"compound": "CCCCCCCC/C=C/CCCCCCCC(=O)OCC(=O)[C@@]1(O)CC[C@H]2[C@@H]3CCC4=CC(=O)C=C[C@]4(C)[C@H]3[C@@H](O)C[C@@]21C", "note": "[prednisolone-elaidate, 11β, 17α, 21-trihydroxypregna-1,4-diene-3,20-dione-21-elaidate]", "values": [{"measurement": "chemiluminescence of stimulated peritoneal cells, comparison of 7 fatty acid esters of prednisolone", "setting": "[3]; i.p. 10 mg/ml, 48 hours post treatment, FIG. 6", "value": "the best"}, {"measurement": "activity (chemoluminescence) of zymosan stimulated peritoneal cells", "setting": "[3]; i.p. 4 ml at 10 mg/ml", "value": "reduced compared to control for up to 48 hours post treatment"}, {"measurement": "airway responsiveness to 5-hydroxytryptamine (PC50RL)", "setting": "[4]; rat, in vivo", "value": "affected to a surprisingly high extent"}, {"measurement": "number of inflammatory cells in the bronchoalveolar fluid", "setting": "[4]; rat, in vivo", "value": "Neither prednisolone nor the derivative did influence"}]}, {"compound": "CCCCCCCCC=CCCCCCCCCOC(=O)NC1CC(OC2CC(O)(C(C)=O)Cc3c(O)c4c(c(O)c32)C(=O)c2c(OC)cccc2C4=O)OC(C)C1O", "note": "(stereo not drawn) [Daunorubicine oleic carbamate, N-(cis-9-octadecen-1-oxycarbonyl)daunorubicin]", "values": [{"measurement": "fluorescence due to uptake in resistant and non-resistant cells", "setting": "[5]", "value": "more or less equal in the two cell types"}]}, {"compound": "COc1ccc2cc([C@H](C)C(=O)O)ccc2c1", "note": "[naproxen, S(+)-2-(6-methoxy-2-naphthyl)propionic acid, reference compound]", "values": [{"measurement": "implants lost through aggressive behaviour of the animals", "setting": "[6]; 2 weeks, n=10", "value": "4 out of 10"}, {"measurement": "glycosaminoglycan content of implanted cartilage, less than liposome-treated control group", "setting": "[6]", "value": 16, "unit": "%"}, {"measurement": "hydroxyproline content of implanted cartilage, less than liposome-treated control group", "setting": "[6]", "value": 12, "unit": "%"}, {"measurement": "reduction of granuloma tissue dry weight versus liposome-treated control", "setting": "[6]; 2 weeks", "value": "no effect"}, {"measurement": "reduction of fluid mass of the granulomas versus liposome-treated control", "setting": "[6]; 2 weeks", "value": 12, "unit": "%"}]}, {"compound": "COc1cccc2c1C(=O)c1c(O)c3c(c(O)c1C2=O)C[C@@](O)(C(=O)CO)C[C@@H]3O[C@H]1C[C@H](N)[C@H](O)[C@H](C)O1", "note": "[Doxorubicine, reference compound]", "values": [{"measurement": "cellular accumulation (concentration) in COR-L23/R compared with COR-L23/P", "setting": "[5]", "value": "much lower in the resistant cell line"}]}, {"compound": "CCCCCCCC/C=C/CCCCCCCC(=O)OCCN(CC)CCCC(C)Nc1ccnc2cc(Cl)ccc12", "note": "(stereo not shown) [Hydroxychloroquine-elaidate, 7-chloro-4-[4-[ethyl(2-elaidoyloxyethyl)amino]1-methylbutylamino]-quinoline]", "values": [{"measurement": "ED50", "setting": "[7]", "value": 0.71, "unit": "mg/kg"}, {"measurement": "ED90 value", "setting": "[7]", "value": 0.93, "unit": "mg/kg"}, {"measurement": "ED99 value", "setting": "[7]", "value": 1.24, "unit": "mg/kg"}, {"measurement": "times more effective than hydroxychloroquine itself", "setting": "[7]; on a molar basis, 4 day test", "value": "2.5- 3 times"}]}, {"compound": "CCCCCCCC/C=C\\CCCCCCCCOC(=O)N[C@H]1C[C@H](O[C@H]2C[C@](O)(C(=O)CO)Cc3c(O)c4c(c(O)c32)C(=O)c2c(OC)cccc2C4=O)O[C@@H](C)[C@H]1O", "note": "(relative stereo) [Doxorubicine-oleyl-carbamate, N-(cis-9-octadecen-1-oxycarbonyl)doxorubicin]", "values": [{"measurement": "cellular accumulation (concentration) in COR-L23/R compared with COR-L23/P", "setting": "[5]", "value": "approximately the same"}]}, {"compound": "O=C(O)CCCc1ccc(N(CCCl)CCCl)cc1", "note": "[Chlorambucil, 4-[p-[bis(2-chlorethyl)amino]-phenyl]butyric acid, reference compound]", "values": [{"measurement": "LD50 at 10 days", "setting": "[2]", "value": 57, "unit": "mg/kg"}]}, {"compound": "C[C@]12C=CC(=O)C=C1CC[C@@H]1[C@@H]2[C@@H](O)C[C@@]2(C)[C@H]1CC[C@]2(O)C(=O)CO", "note": "[prednisolone, 11β, 17α, 21-trihydroxypregna-1,4-diene-3,20-dione, reference compound]", "values": [{"measurement": "activity (chemoluminescence) of zymosan stimulated peritoneal cells", "setting": "[3]; i.p. 4 ml at 10 mg/ml", "value": "slight reduction of the chemoluminescence at 6 hours"}, {"measurement": "number of macrophages in peritoneal lavage", "setting": "[3]; i.p. 4 ml at 10 mg/ml, 6-72 hours, FIG. 8, FIG. 9", "value": "much less pronounced, and only seen at 6 and 12 hours"}, {"measurement": "number of inflammatory cells in the bronchoalveolar fluid", "setting": "[4]; instillation 3 mg/kg, 12 and 4 hours prior to LPS aerosol", "value": "Neither prednisolone nor the derivative did influence"}]}, {"compound": "Elaidic acid daunorubicin amide [Daunorubicine elaidic amide]", "values": [{"measurement": "fluorescence due to uptake in resistant and non-resistant cells", "setting": "[5]", "value": "more or less equal in the two cell types"}]}, {"compound": "CCCCCCCC/C=C\\CCCCCCCCOC(=O)[C@@H](C)c1ccc2cc(OC)ccc2c1", "note": "(stereo in doubt) [naproxen oleyl ester, S(+)-2-(6-methoxy-2-naphthyl)propionic acid-cis-9′-octadecenyl-ester]", "values": [{"measurement": "glycosaminoglycan content of implanted cartilage, less than liposome-treated control group", "setting": "[6]", "value": 12, "unit": "%"}, {"measurement": "hydroxyproline content of implanted cartilage, less than liposome-treated control group", "setting": "[6]", "value": 8, "unit": "%"}, {"measurement": "reduction of granuloma tissue dry weight versus liposome-treated control", "setting": "[6]; 2 weeks", "value": 12, "unit": "%"}, {"measurement": "reduction of fluid mass of the granulomas versus liposome-treated control", "setting": "[6]; 2 weeks", "value": 14, "unit": "%"}]}, {"compound": "CCCCCCCC/C=C\\CCCCCCCCOc1ccc2cc([C@H](C)C(=O)O)ccc2c1", "note": "(stereo in doubt) [naproxen oleyl ether, S(+)-2-(6-[cis-9′-octadecenoxy]-2-naphthyl)-propionic acid]", "values": [{"measurement": "reduction of granuloma tissue dry weight versus liposome-treated control", "setting": "[6]; 2 weeks", "value": 16, "unit": "%"}, {"measurement": "reduction of fluid mass of the granulomas versus liposome-treated control", "setting": "[6]; 2 weeks", "value": 9, "unit": "%"}]}, {"compound": "CCN(CCO)CCCC(C)Nc1ccnc2cc(Cl)ccc12", "note": "(stereo not shown) [Hydroxychloroquine sulphate, 7-chloro-4-[4-[ethyl(2-hydroxyethyl)amino]1-methylbutylamino]quinoline, reference compound]", "values": [{"measurement": "ED50", "setting": "[7]", "value": 1.74, "unit": "mg/kg"}, {"measurement": "ED90 value", "setting": "[7]", "value": 2.75, "unit": "mg/kg"}, {"measurement": "ED99 value", "setting": "[7]", "value": 4.52, "unit": "mg/kg"}]}, {"compound": "CCCCCCCC/C=C\\CCCCCCCCOC(=O)CCCc1ccc(N(CCCl)CCCl)cc1", "note": "[chlorambucil-oleylester, Chlorambucil-oleyl ester]", "values": [{"measurement": "Derivative LD50", "setting": "[2]", "value": ">1600", "unit": "mg/kg"}]}, {"compound": "CCCCCCCCC=CCCCCCCCC(=O)NC1CC(OC2CC(O)(C(=O)CO)Cc3c(O)c4c(c(O)c32)C(=O)c2c(OC)cccc2C4=O)OC(C)C1O", "note": "(stereo not shown) [Doxorubicine-elaidic-amide, Elaidic acid doxorubicin amide]", "values": [{"measurement": "cellular accumulation (concentration) in COR-L23/R compared with COR-L23/P", "setting": "[5]", "value": "approximately the same"}, {"measurement": "IC50", "setting": "[8]", "value": "> 50", "unit": "µM"}]}, {"compound": "CCCCCCCC/C=C\\CCCCCCCCNC(=O)[C@@H](C)c1ccc2cc(OC)ccc2c1", "note": "(stereo in doubt) [naproxen oleyl amide, S(+)-2-(6-methoxy-2-naphthyl)propionic acid-(cis-9′-octadecenyl)-amide]", "values": [{"measurement": "glycosaminoglycan content of implanted cartilage, less than liposome-treated control group", "setting": "[6]", "value": 11, "unit": "%"}, {"measurement": "hydroxyproline content of implanted cartilage, less than liposome-treated control group", "setting": "[6]", "value": 3, "unit": "%"}, {"measurement": "reduction of granuloma tissue dry weight versus liposome-treated control", "setting": "[6]; 2 weeks", "value": 38, "unit": "%"}, {"measurement": "reduction of fluid mass of the granulomas versus liposome-treated control", "setting": "[6]; 2 weeks", "value": 22, "unit": "%"}]}, {"compound": "N[C@@H](Cc1ccc(N(CCCl)CCCl)cc1)C(=O)O", "note": "[Melphalan, L-3-[p-[bis(2-chlorethyl)amino]-phenyl]alanine, reference compound]", "values": [{"measurement": "ED90, dose required to reduce tumour mass by 90% compared to controls", "setting": "[1]; [9]", "value": "no activity"}, {"measurement": "LD50 at 10 days", "setting": "[2]", "value": 23, "unit": "mg/kg"}]}]}
